Data on 15 molecules can be found in patent US6013666A, “Oxirane carboxylic acid derivative and its manufacturing method” (Jew; Sang Sup, priority 1996, dated 2000).

Series [1] is described as follows: Acute toxicity test on rats, oral. The format is in vivo. Conditions: rat, in vivo, rats 200-250 g, dissolved in ethylacetate, calculated by number of killed animals. As for the experimental part: (§1) The acute toxicity tests on rats were performed using the compound prepared by the procedure of the Example 1. Mature rats weighing 200-250 g were orally given the compound of the Example 1 dissolved in ethylacetate in parallel with its gradually increasing concentration.

A further series has as its system Mature rats. Kind of series: Acute toxicity test on rats, oral. The format is in vivo. The settings on record: rats. As for the experimental part: as §1
For series [2], the system named is male diabetes-induced Sprague-Dawley rats. Kind of series: Blood glucose lowering effects on streptozotocin diabetes-induced rats. The format is in vivo. Conditions: Rattus norvegicus; STZ diabetes-induced rats, 50 mg/kg oral; measured at 90, 120 and 180 mins, smallest values taken; read-out: Blood glucose lowering rate %. As for the experimental part:
Blood Glucose Lowering Effects of the Compounds Prepared by the Procedures of Example 1~6, 11~18
Two groups of male diabetes-induced Sprague-Dawley rats (each of 4-5 rats weighing about 250 g) were used for this experiment. 45 mg/kg of streptozotocin (STZ) dissolved in 0.1M citrate buffer (pH 4.5, 0-4° C.) was injected to the tail vein of fasted rats for 1 day. After elapse of 7 days, their blood glucose concentration were measured and animals having the blood serum concentration of more than 350 mg/dl were used as diabetes-induced rats for this experiment. The rats were intravenously administered at a daily dose of 1 ml/kg, while the normal control group received equal volume of 0.1M citrate buffer.
7 days after being treated with streptozotocin, diabetes-induced rats were orally administered at a dose of 50 mg/kg of the compounds prepared by the procedures of Examples 1-6, 11~18. Then, at time intervals of 90 mins, 120 mins and 180 mins, their blood glucose concentrations were measured and the smallest values were taken. The compounds of […] were dissolved in 30% ethanol until its final concentration became 2 ml/kg, while the control group was orally received equal volume of 30% ethanol.
Significant difference between two groups was determined by ANOVA test, together with a post hoc test using Newman-Keuls test.

For series [3] the following is noted: phase II clinical trials; cited from earlier work.

Usually LD50 stands for the dose at which mortality reaches 50%. In the case of `CCOC(=O)C1(CCCCCCOC(=O)c2ccc(Cl)cc2)CO1` (stereo not drawn) [Example 1, Ethyl-2-[6-(4-chlorophenylcarboxyl)hexyl]-oxirane-2-carboxylic acid], in series [1], the median lethal dose (LD50) is 487 mg/kg. Further, the “number of killed animals/number of animals per group” value was 0/10 with Mature rats (dose 160 mg/kg); 1/10 in the series on Mature rats (dose 300 mg/kg); 2/10 in the series on Mature rats (dose 400 mg/kg); 5/10 with Mature rats (dose 500 mg/kg); 8/10 in the series on Mature rats (dose 600 mg/kg). The inhibition in vivo at 50 mg/kg in series [2] was 11.8%.

For the molecule `CCOC(=O)C1(CCCCCCOC(=O)c2cnc(C)cn2)CO1` (stereo not drawn) [Example 2, Ethyl-2-[6-(5-methyl-2-pyrazincarboxyl)hexyl]-oxirane-2-carboxylic acid], the inhibition in vivo at 50 mg/kg in series [2] stood at 28.2%.

`CCOC(=O)C1(CCCCCCOC(=O)c2cncc(Br)c2)CO1` (stereo not drawn) [Example 3, Ethyl-2-[6-(5-bromo-3-pyridincarboxyl)hexyl]-oxirane-2-carboxylic acid]: the inhibition in vivo at 50 mg/kg in series [2] amounted to 8.1%.

With `CCOC(=O)C1(CCCCCCOC(=O)c2ccc(OC)nc2OC)CO1` (stereo not drawn) [Example 4, Ethyl-2-[6-(2,6-dimethoxy-5-pyridincarboxyl)hexyl]-oxirane-2-carboxylic acid], the inhibition in vivo at 50 mg/kg in series [2] stood at 21.6%.

With `CCOC(=O)C1(CCCCCCOC(=O)c2cccs2)CO1` (stereo not drawn) [Example 5, Ethyl-2-[6-(2-thiophenecarboxyl)hexyl]-oxirane-2-carboxylic acid], the inhibition in vivo at 50 mg/kg in series [2] is 16.8%.

As to `CCOC(=O)C1(CCCCCCOC(=O)c2cnccn2)CO1` (stereo not drawn) [Example 6, Ethyl-2-[6-(2-pyrazincarboxyl)hexyl]-oxirane-2-carboxylic acid], the inhibition in vivo at 50 mg/kg in series [2] turned out to be 24.1%.

`CCOC(=O)C1(CCCCCCOCc2cccs2)CO1` (stereo not drawn) [Example 11, Ethyl-2-[6-(2-thiophenemethoxy)hexyl]oxirane-2-carboxylic acid]: the inhibition in vivo at 50 mg/kg in series [2] is 75.9%.

On to `CCOC(=O)C1(CCCCCCn2nc(C)cc2C)CO1` (stereo not drawn) [Example 12, Ethyl-2-[6-(3,5-dimethylpyrazole)hexyl]oxirane-2-carboxylic acid], for which, in series [2], the inhibition in vivo at 50 mg/kg worked out at 47%.

`CCOC(=O)C1(CCCCCCOCc2ccc(OC)s2)CO1` (stereo not drawn) [Example 13, Ethyl-2-[6-(5-methoxy-2-thiophenemethoxy)hexyl]oxirane-2-carboxylic acid]: the inhibition in vivo at 50 mg/kg in series [2] worked out at 5.9%.

In the case of `CCOC(=O)C1(CCCCCCOCc2ccc(C)s2)CO1` (stereo not drawn) [Example 14, Ethyl-2-[6-(5-methyl-2-thiophenemethoxy)hexyl]oxirane-2-carboxylic acid], the inhibition in vivo at 50 mg/kg in series [2] was 33.7%.

For the molecule `CCOC(=O)C1(CCCCCCOCc2ccc(C)o2)CO1` (stereo not drawn) [Example 15, Ethyl-2-[6-(5-methyl-2-furanmethoxy)hexyl]oxirane-2-carboxylic acid], the inhibition in vivo at 50 mg/kg in series [2] is 6.8%.

For `CCOC(=O)C1(CCCCCCOCCc2cccs2)CO1` (stereo not drawn) [Example 16, Ethyl-2-[6-(2-thiophenethoxy)hexyl]oxirane-2-carboxylic acid], in series [2], the inhibition in vivo at 50 mg/kg was 5.6%.

Consider `CCOC(=O)C1(CCCCCCOCc2ccc(Cl)s2)CO1` (stereo not drawn) [Example 17, Ethyl-2-[6-(5-chloro-2-thiophenemethoxy)hexyl]oxirane-2-carboxylic acid], for which the inhibition in vivo at 50 mg/kg in series [2] came to 19.2%.

In the case of `CCOC(=O)C1(CCCCCCOCc2sccc2Cl)CO1` (stereo not drawn) [Example 18, Ethyl-2-[6-(3-chloro-2-thiophenemethoxy)hexyl]oxirane-2-carboxylic acid], the inhibition in vivo at 50 mg/kg in series [2] was 30.7%.

As for `CCOC(=O)[C@@]1(CCCCCCOc2ccc(Cl)cc2)CO1` [etomoxir], in series [3], the “side effects associated with prolonged administration” value was “enlarged heart and toxicity in the liver”.
